Source: paper PMC2680961, “Homologous desensitization of signalling by the alpha (α) isoform of the human thromboxane A2 receptor: A specific role for nitric oxide signalling” (Biochimica et Biophysica Acta, 2007)
Changes are numbered by the printed parent chain.

Key:
[1] = target: T1, TPα^T337A (Homo sapiens, UniProt P21731, T337A); assay: [3H]SQ29,548 radioligand binding, Scatchard analysis, HEK.TPα^T337A
T1 construct: expressed in transfected cells
T1 sequence (P21731 1-343 T337A): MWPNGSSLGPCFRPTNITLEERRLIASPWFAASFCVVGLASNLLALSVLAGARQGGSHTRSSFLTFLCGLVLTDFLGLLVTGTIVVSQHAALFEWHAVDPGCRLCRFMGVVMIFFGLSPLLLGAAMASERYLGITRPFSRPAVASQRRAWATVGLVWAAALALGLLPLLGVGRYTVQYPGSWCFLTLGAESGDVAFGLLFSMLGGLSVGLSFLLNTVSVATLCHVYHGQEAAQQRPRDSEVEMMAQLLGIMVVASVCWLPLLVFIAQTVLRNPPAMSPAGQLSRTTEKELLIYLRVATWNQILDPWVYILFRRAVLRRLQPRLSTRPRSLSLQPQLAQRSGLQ
Experimental: (§1) Cells were harvested by centrifugation at 500×g at 4 °C for 5 min and washed three times with ice-cold Ca^2+/Mg^2+-free phosphate-buffered saline (PBS). TP radioligand binding assays were carried out at 30 °C for 30 min in 100 μl reactions in the presence of 0–40 nM [^3H] […] Protein determinations were carried out using the Bradford assay.
(§2) Radioligand binding and Scatchard analysis data were analysed using GraphPad Prisim V4.0 programme (GraphPad Software Inc., San Diego CA, USA). Statistical analyses were carried out using the unpaired Student's t test using the Statworks Analysis Package. p-values ≤ 0.01 indicated statistically significant differences.

[2] = target: T2, TPα^S331,T337,S340A (Homo sapiens, UniProt P21731, S331A/S340A/T337A); assay: [3H]SQ29,548 radioligand binding, Scatchard analysis, HEK.TPα^S331,T337,S340A
T2 construct: expressed in transfected cells
T2 sequence (P21731 1-343 S331A/T337A/S340A): T1 sequence (P21731 1-343 T337A) with S331A, S340A
Experimental: as §1, §2

[3] = target: T2, TPα^S331,T337,S340A; assay: Intracellular calcium mobilization, HEK.TP^S331,T337,S340A cells; assay type: cell-based; settings: for Δ[Ca2+]i, U46619-induced: HEK.TP^S331,T337,S340A
Experimental: Measurement of intracellular calcium mobilization ([Ca^2+]i) in FURA2/AM preloaded HEK 293 cell lines (2 × 10^6 cells/dish), each transiently co-transfected with pADVA (10 μg), and pCMV:Gαq (25 μg), was carried out as previously described. To investigate the effect of GRK2/βARK1 on TP-mediated [Ca^2+]i mobilization, HEK.TPα or HEK.TPβ cells (2 × 10^6 cells/dish) were co-transfected with pADVA (10 μg), pCMV:Gαq (25 μg) along with pRK5:βARK1^495–689 (25 μg), encoding a dominant negative form of GRK2/βARK1[39]. Approximately 48 h post-transfection, cells were harvested by scraping, washed twice in ice-cold PBS and resuspended in HBSSHB (modified Ca^2+/Mg^2+-free Hank's buffered salt solution, containing […], pH 7.67, 0.1% bovine serum albumin (BSA)) buffer at 10^7 cells/ml and incubated in the dark with 5 μM FURA2/AM for 45 min at 37 °C. […] For each measurement of [Ca^2+]i mobilization, aliquots of cells were diluted to 0.825 × 10^6 cells/ml in HBSSHB, 1 mM CaCl2 and FURA2 fluorescence was recorded (2 ml aliquots of cells) at 37^ °C with gentle stirring with a Perkin Elmer-Cetus LS50-B spectrofluorometer at excitation wavelengths of 340 nm and 380 nm and emission wavelength of 510 nm, respectively.
Cells were stimulated with the TP agonist U46619 (1 μM) and changes in [Ca^2+]i mobilization were monitored as a function of time. To assess agonist-mediated homologous desensitization, cells (0.825 × 10^6 cells/ml; 2 ml per assay) were stimulated with 1 μM U46619 (Primary stimulation) or, as a control, with the vehicle for 4 min; thereafter, cells were collected by centrifugation (900×g, 5 min); were washed twice in 2 ml HBSSHB, 1 mM CaCl2; and finally resuspended in 2 ml HBSSHB,1 mM CaCl2 and were left to recover over various time intervals (ranging from 0 to 60 min); thereafter, cells re-stimulated with 1 μM U46619 (Secondary stimulation) and changes in [Ca^2+]i mobilization were monitored as a function of time. […]

SMILES | Bmax (pmol/mg protein ± S.E.M.) [1] [pmol/mg protein] | Bmax (pmol/mg protein ± S.E.M.) [2] [pmol/mg protein] | Δ[Ca2+]i, U46619-induced ([3]; primary 1 μM U46619 4 min) [nM] | Δ[Ca2+]i, U46619-induced ([3]; secondary 1 μM U46619 at 15 min) [nM] | secondary U46619 [Ca2+]i response relative to primary response ([3]; TPα^S331,T337,S340A) [%]
O=C(O)CCC/C=C\C[C@@H]1[C@H](CNNC(=O)Nc2ccccc2)[C@H]2CC[C@@H]1O2 [SQ29,548] | 4.23 ± 0.04 | 4.01 ± 0.05 | – | – | –
CCCCC[C@H](O)/C=C/[C@@H]1[C@@H](C/C=C\CCCC(=O)O)[C@H]2CO[C@@H]1C2 [U46619] | – | – | 195 ± 12 | 67 ± 8.2 | ~34
